# Article PMC12493201, “A biosynthetic pathway for ornithine lipid formation dependent on a GH3 (Gretchen Hagen 3)-like enzyme in planctomycetes” (The Journal of Biological Chemistry, 2025)
# Molecular target: T1, OlsH (Sinac_1599) (Singulisphaera acidiphila, UniProt L0DAW6)
# T1 sequence (L0DAW6 1-526): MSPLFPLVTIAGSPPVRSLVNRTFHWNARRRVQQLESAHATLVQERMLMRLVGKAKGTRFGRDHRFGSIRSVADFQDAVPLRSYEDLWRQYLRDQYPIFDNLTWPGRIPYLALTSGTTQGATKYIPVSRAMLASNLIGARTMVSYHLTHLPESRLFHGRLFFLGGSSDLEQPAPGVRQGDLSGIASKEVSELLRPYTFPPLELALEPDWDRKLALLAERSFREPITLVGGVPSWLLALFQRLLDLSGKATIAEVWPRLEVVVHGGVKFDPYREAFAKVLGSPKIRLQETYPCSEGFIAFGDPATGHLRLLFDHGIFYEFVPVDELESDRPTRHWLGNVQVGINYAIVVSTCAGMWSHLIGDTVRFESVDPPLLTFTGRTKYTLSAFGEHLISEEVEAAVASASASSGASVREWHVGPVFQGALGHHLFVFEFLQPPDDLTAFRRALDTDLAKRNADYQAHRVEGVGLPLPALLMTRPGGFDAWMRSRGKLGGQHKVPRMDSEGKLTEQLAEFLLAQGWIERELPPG
# Assay: […] N-acyl ornithine formation, TLC / PhosphorImager; empty-vector extract inactive
# Format: biochemical
# Conditions: ATP, Mg2+, Tris pH 7.9, 30 °C, cell-free E. coli extract
compound,measurement,setting,value
NCCC[C@H](N)C(=O)O [ornithine],"14C N-acyl ornithine formation, TLC / PhosphorImager; empty-vector extract inact","palmitic acid, labelled compound",Adding all compounds resulted in a solid acyl-ornithine signal
CCCCCCCCCCCCCCCC(=O)O [palmitic acid],"14C N-acyl ornithine formation, TLC / PhosphorImager; empty-vector extract inact","[14C]-ornithine, fatty acid as Triton X-100 micelles",Strong acyl ornithine signals were detected with the three non-hydroxylated fatty acids
